# Data taken from US20190359653A1, “SELECTIVE PEPTIDE INHIBITORS OF FRIZZLED” (Genentech, Inc., priority 2016, published 2019).
# “Also recorded” adds a separate entry of the source.
# What was measured:
# [1] = biological target: T1, Wnt5a binding to FZD4 CRD (Homo sapiens, UniProt Q9ULV1); assay: ELISA of biotinylated Wnt5a binding to FZD CRD-Fc; settings: peptide 0-10 μM
# T1 construct: hFZD4 CRD-Fc (cat no. 5847-FZ); purchased R&D systems 5847-FZ
# T1 sequence (Q9ULV1 40-161 limits assumed): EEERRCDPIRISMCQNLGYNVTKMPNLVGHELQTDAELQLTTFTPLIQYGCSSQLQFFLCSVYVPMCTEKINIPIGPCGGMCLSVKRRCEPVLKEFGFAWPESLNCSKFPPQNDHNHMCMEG
# Protocol: 384-well Maxisorp plates (cat. no. 464718; Thermo Scientific) were incubated with 30 μL of Neutravidin (cat. no. 31000, Thermo Scientific; 2 μg/mL in PBS) overnight at 4° C. Plates were then washed with PBST and blocked with PBS/1% BSA for 1 hour at RT and then washed with PBST prior to further processing. The binding assay was conducted in 96 well plates (cat no. 83007-374; VWR) which were blocked with PBS/1% BSA overnight at 4° C. hFZD4 CRD-Fc or hFZD7 CRD-Fc (63 ng/mL) were incubated with either Bio-Wnt3a (25 ng/mL) or Bio-Wnt5a (50 ng/mL) in the presence of 4-fold serial dilutions of the indicated peptide in PBS overnight at 4° C. All assays included hFZD9 CRD-mIgG2A protein as a negative control. hFZD7 CRD-His was suspended in 150 mM NaCl, 50 mM Tris-HCl at pH 7.5 and when used in assays an equal volume of the same buffer control was used. The binding assay mixtures were transferred to the Neutravidin coated plates and incubated for ˜1 h at RT. The wells were then washed with PBST, incubated with anti-hIgG1-HRP (1:10,000 suspended in PBS supplemented with 1% BSA; cat. no. A18817, Invitrogen), and washed again with PBST. The signal was developed with the addition of TMB reagent (following the manufacturer's recommendation; KPL; 50-76-00) for 15 min prior to the addition of an equal volume of 1 M phosphoric acid for 10 min Absorbance was measured at 450 nm using a Tekan M1000 plate reader. Values were collected and plotted using Prism Graphpad software. All assay conditions using peptides were at 1% DMSO final concentration. […]
# Briefly, the assays were performed using (a) FZD1 CRD-Fc, (b) FZD2 CRD-Fc, (c) FZD4 CRD-Fc, or (d) FZD7 CRD-Fc as the capture reagent and biotinylated-Wnt5a as the detection reagent. […] Streptavidin-HRP was used to detect biotinylated Wnt5a, and HRP activity was measured as a function of chemiluminescence detection at 428 nm. […]
# [2] = tested on: intestinal epithelia of C57BL/6 mice; assay: RT-PCR of intestinal epithelia from treated mice; assay type: in vivo, mouse; settings: intraperitoneal, 6 h; FIGS. 20A-20C
# Protocol: RNA from organoid samples was isolated using the RNeasy Micro kit (cat. no. 74004; Qiagen) according to the manufacturer's instructions. Mouse small intestine RNA was collected using the RNeasy Mini Kit (cat. no. 74104; Qiagen). qRT-PCR was performed in 10 μL reactions with 50 ng total RNA using One-step Real-time RT-PCR mastermix (cat. no. 4392938; Life Technologies) according to the manufacturer's instructions. Taqman probes from Life Technologies were used: Actb (Mm01205647_g1); Lgr5 (Mm01251801_m1); Axin2 (Mm00443610_m1); Ascl2 (Mm01268891_g1); Olfm4 (Mm01320260_m1); Muc2 (Mm01276696_m1); ACTB(Hs99999903_m1); ACTB(Mm00607939_s1); GAPDH (Mm99999915_g1); and GAPDH(Hs03929097_g1). RT-PCR reactions were run using a 7900HT Fast Real-Time PCR system (ABI) at the following thermal cycling conditions: Holding step of 30 min at 48° C., followed by a holding step of 10 min at 95° C., and 40 cycles of 10 sec at 95° C. and 1 min at 60° C. Values were normalized to actin transcript levels and then normalized to control as described in the figure legend.
# C57BL/6 female mice (8 weeks old) were subjected to intraperitoneal injection once per hour (˜150-200 μL injection volume for five injections) until the indicated peptide dose was reached. […]
# The pharmacological effect of dFz7-21 was further investigated in vivo. […] Following treatment, RT-PCR was performed to quantify transcript levels.
Sequence,effect on Wnt5a binding to FZD4 CRD [1],"Lgr5, Ascl2 and Axin2 transcript levels [2]"
LPSDDLEFWCHVMY [dFz7-21],did not show any effect; also recorded: no such effect,significantly down regulated
"LPSDDLEFWSHVMY [Fz7-21S, negative control]",showed no effect,did not affect
